Experimental findings from US20240270821A1, “GIP/GLP1/GCG TRI-RECEPTOR AGONISTS AND USES THEREOF” (priority 2023, published 2024) are described below.

By EC50 is commonly meant the midpoint of the concentration-response curve.

Starred links: 1 amine or outer side, 2 acyl side, 3 side chain; linkers in the order of their positions; H or OH if unused. Non-standard residues stand in square brackets, D forms with d. Residues, ends and D or L forms follow the SMILES beside them. Groups on a side chain read outwards from the residue. *: point of attachment. C18 diacid = O=C(O)CCCCCCCCCCCCCCCCC(=O)*; αMePhe(2-F) = C[C@](N)(Cc1ccccc1F)C(=O)O; γGlu = O=C(O)[C@H](CCC(=O)[*:2])N[*:1]; αMe4Pal = C[C@](N)(Cc1ccncc1)C(=O)O; αMeY = C[C@](N)(Cc1ccc(O)cc1)C(=O)O; 4Pal = N[C@@H](Cc1ccncc1)C(=O)O; αMeL = CC(C)C[C@](C)(N)C(=O)O; αMeS = C[C@](N)(CO)C(=O)O; Orn = NCCC[C@H](N)C(=O)O; AEEA = NCCOCCOCC(=O)O; Aib = CC(C)(N)C(=O)O

Type in all cases: cell-based
In experiment [1] the target is T1, hGLP-1R (Homo sapiens, UniProt P43220). Description: Functional cAMP activity in the presence of 1% HSA. To be noted: read-out: cAMP Rel EC50, hGLP-1R.
In experiment [2] the target is T1, hGLP-1R. Description: Functional cAMP activation in the presence of 0.1% casein (no HSA). To be noted: read-out: Relative cAMP EC50, hGLP-1R.
The target of experiment [3] is T2, hGIPR (Homo sapiens, UniProt P48546).
T2 sequence (P48546 22-466): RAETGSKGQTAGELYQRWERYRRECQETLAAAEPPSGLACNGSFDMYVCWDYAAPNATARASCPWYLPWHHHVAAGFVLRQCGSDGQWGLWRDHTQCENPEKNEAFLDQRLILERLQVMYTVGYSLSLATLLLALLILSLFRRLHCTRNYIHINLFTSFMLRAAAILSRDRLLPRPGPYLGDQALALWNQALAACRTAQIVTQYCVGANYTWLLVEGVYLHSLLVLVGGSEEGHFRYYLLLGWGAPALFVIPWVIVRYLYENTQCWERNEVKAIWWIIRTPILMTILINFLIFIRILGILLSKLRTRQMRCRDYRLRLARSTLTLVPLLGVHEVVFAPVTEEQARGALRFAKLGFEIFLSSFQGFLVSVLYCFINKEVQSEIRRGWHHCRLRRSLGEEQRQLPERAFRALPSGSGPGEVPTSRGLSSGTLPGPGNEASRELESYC
The description is as above. To be noted: read-out: Relative cAMP EC50, hGIPR.

In a further experiment the target is human GcgR (Homo sapiens, UniProt P47871). Put plainly: Functional cAMP activity in the presence of 1% HSA. To be noted: read-out: cAMP Rel EC50, hGcgR.
For the next experiment, the target named is hGcgR (Homo sapiens, UniProt P47871). Put plainly: Functional cAMP activation in the presence of 0.1% casein (no HSA). To be noted: read-out: Relative cAMP EC50, hGcgR.
In experiment [4] the target is T2, hGIPR. Description: Functional cAMP activity in the presence of 1% HSA. The following applies: read-out: cAMP Rel EC50, hGIPR.
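Wherever Relative cAMP EC50, hGIPR is given: intracellular cAMP rise after 30 min at 37 °C read by HTRF against a standard curve, scaled between buffer alone (0%) and top control ligand concentration (100%), four-parameter fit.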
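Wherever Relative cAMP EC50, hGLP-1R is given: intracellular cAMP rise after 30 min at 37 °C read by HTRF, normalized between buffer only (0%) and maximal control ligand (100%), four-parameter variable-slope fit.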
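Wherever Relative cAMP EC50, hGcgR is given: intracellular cAMP rise after 30 min at 37 °C, read by HTRF against a cAMP standard curve, scaled from buffer only (0%) to maximal control ligand response (100%).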

T1 sequence (P43220 24-463): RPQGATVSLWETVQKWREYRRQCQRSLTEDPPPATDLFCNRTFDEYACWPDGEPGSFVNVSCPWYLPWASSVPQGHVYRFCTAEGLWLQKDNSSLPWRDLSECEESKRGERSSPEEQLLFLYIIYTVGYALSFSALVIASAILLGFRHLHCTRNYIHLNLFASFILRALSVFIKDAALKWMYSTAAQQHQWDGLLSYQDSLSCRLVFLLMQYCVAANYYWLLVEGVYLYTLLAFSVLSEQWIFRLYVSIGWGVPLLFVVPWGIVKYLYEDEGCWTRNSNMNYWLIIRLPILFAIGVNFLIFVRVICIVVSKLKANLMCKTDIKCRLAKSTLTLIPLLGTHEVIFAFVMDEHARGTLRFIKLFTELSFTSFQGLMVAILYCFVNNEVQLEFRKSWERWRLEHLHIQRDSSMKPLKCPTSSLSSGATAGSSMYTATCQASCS
Sequence of hGcgR (P47871 26-477): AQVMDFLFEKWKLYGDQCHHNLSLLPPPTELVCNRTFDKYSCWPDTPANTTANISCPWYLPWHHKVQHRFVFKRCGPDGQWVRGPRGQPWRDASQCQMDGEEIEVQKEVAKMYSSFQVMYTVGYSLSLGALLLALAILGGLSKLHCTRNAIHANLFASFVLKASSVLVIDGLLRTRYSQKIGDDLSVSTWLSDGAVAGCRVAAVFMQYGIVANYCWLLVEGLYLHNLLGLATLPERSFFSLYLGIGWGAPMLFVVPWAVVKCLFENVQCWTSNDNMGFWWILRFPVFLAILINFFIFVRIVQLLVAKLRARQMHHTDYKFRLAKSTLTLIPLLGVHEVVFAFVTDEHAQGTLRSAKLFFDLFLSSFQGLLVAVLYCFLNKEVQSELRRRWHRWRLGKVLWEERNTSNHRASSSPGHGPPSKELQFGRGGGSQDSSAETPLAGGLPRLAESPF
Sequence of human GcgR (P47871 26-477): as above

As for `CC[C@H](C)[C@H](NC(=O)[C@H](CC(C)C)NC(=O)[C@](C)(Cc1ccncc1)NC(=O)[C@@H](CCC(=O)O)NC(=O)[C@@H](NC(=O)[C@H](Cc1ccccc1)NC(=O)[C@H](CCCN)NC(=O)C(C)(C)NC(=O)[C@H](CCC(N)=O)NC(=O)[C@H](C)NC(=O)[C@H](CCCCNC(=O)COCCOCCNC(=O)CC[C@H](NC(=O)CCCCCCCCCCCCCCCCC(=O)O)C(=O)O)NC(=O)[C@H](CCCN)NC(=O)[C@H](CC(=O)O)NC(=O)[C@H](CC(C)C)NC(=O)[C@](C)(CC(C)C)NC(=O)[C@@H](NC(=O)[C@](C)(CO)NC(=O)[C@H](Cc1ccncc1)NC(=O)[C@H](CC(=O)O)NC(=O)[C@H](CO)NC(=O)[C@@H](NC(=O)[C@](C)(Cc1ccccc1F)NC(=O)[C@@H](NC(=O)CNC(=O)[C@H](CCC(N)=O)NC(=O)C(C)(C)NC(=O)[C@@H](N)Cc1ccc(O)cc1)[C@@H](C)O)[C@@H](C)O)[C@@H](C)CC)[C@@H](C)CC)C(=O)N[C@@H](CCC(=O)O)C(=O)NCC(=O)NCC(=O)N1CCC[C@H]1C(=O)N[C@@H](CO)C(=O)N[C@@H](CO)C(=O)NCC(=O)N[C@@H](CCC(=O)O)C(=O)N1CCC[C@H]1C(=O)N1CCC[C@H]1C(=O)N1CCC[C@H]1C(=O)N[C@@H](CCC(=O)O)C(N)=O` [Example 453] (H-Y[Aib]QGT[αMePhe(2-F)]TSD[4Pal][αMeS]I[αMeL]LD[Orn]K([AEEA-γGlu-C18 diacid])AQ[Aib][Orn]FI[dE][αMe4Pal]LIEGGPSSGEPPPE-NH2), the 50% effective concentration (EC50) at hGLP-1R [1] amounted to 20.6 nM; on hGLP-1R [2] it was 0.374 nM; on hGIPR [3], 0.0184 nM; on human GcgR, 261 nM; on hGcgR it was 7.37 nM; at hGIPR [4] it was 1.95 nM.

With `CC[C@H](C)[C@H](NC(=O)[C@H](CCCN)NC(=O)[C@H](CC(=O)O)NC(=O)[C@H](CC(C)C)NC(=O)[C@H](CC(C)C)NC(=O)[C@@H](NC(=O)[C@H](CO)NC(=O)[C@H](Cc1ccncc1)NC(=O)[C@H](CC(=O)O)NC(=O)[C@H](CO)NC(=O)[C@@H](NC(=O)[C@](C)(Cc1ccccc1F)NC(=O)[C@@H](NC(=O)CNC(=O)[C@H](CCC(N)=O)NC(=O)C(C)(C)NC(=O)[C@@H](N)Cc1ccc(O)cc1)[C@@H](C)O)[C@@H](C)O)[C@@H](C)CC)C(=O)N[C@@H](C)C(=O)N[C@@H](CCC(N)=O)C(=O)NC(C)(C)C(=O)N[C@@H](C)C(=O)N[C@@H](Cc1ccccc1)C(=O)N[C@H](C(=O)N[C@@H](CCCCNC(=O)COCCOCCNC(=O)CC[C@H](NC(=O)CCCCCCCCCCCCCCCCC(=O)O)C(=O)O)C(=O)N[C@@H](Cc1ccc(O)cc1)C(=O)N[C@@H](CC(C)C)C(=O)N[C@@H](CCC(=O)O)C(=O)N[C@@H](CCC(=O)O)C(=O)NCC(=O)NCC(=O)N1CCC[C@H]1C(=O)N[C@@H](CO)C(=O)N[C@@H](CO)C(=O)NCC(=O)N[C@@H](C)C(=O)N1CCC[C@H]1C(=O)N1CCC[C@H]1C(=O)N1CCC[C@H]1C(=O)N[C@@H](CO)C(N)=O)[C@@H](C)CC` [Example 454] (H-Y[Aib]QGT[αMePhe(2-F)]TSD[4Pal]SILLD[Orn]IAQ[Aib]AFIK([AEEA-γGlu-C18 diacid])YLEEGGPSSGAPPPS-NH2), the EC50 on hGLP-1R [1] stood at 135 nM; at hGLP-1R [2], 0.821 nM; on hGIPR [3], 0.0154 nM; on human GcgR, 1280 nM; at hGcgR, 9.11 nM; on hGIPR [4], 4.31 nM.

`CC[C@H](C)[C@H](NC(=O)[C@H](CCCCN)NC(=O)[C@H](CC(=O)O)NC(=O)[C@H](CC(C)C)NC(=O)[C@](C)(CC(C)C)NC(=O)[C@@H](NC(=O)[C@H](CO)NC(=O)[C@H](Cc1ccc(O)cc1)NC(=O)[C@H](CC(=O)O)NC(=O)[C@H](CO)NC(=O)[C@@H](NC(=O)[C@](C)(Cc1ccccc1F)NC(=O)[C@@H](NC(=O)CNC(=O)[C@H](CCC(N)=O)NC(=O)C(C)(C)NC(=O)[C@@H](N)Cc1ccc(O)cc1)[C@@H](C)O)[C@@H](C)O)[C@@H](C)CC)C(=O)N[C@@H](C)C(=O)N[C@@H](CCC(N)=O)C(=O)NC(C)(C)C(=O)N[C@@H](C)C(=O)N[C@@H](Cc1ccccc1)C(=O)N[C@H](C(=O)N[C@@H](CCCCNC(=O)COCCOCCNC(=O)CC[C@H](NC(=O)CCCCCCCCCCCCCCCCC(=O)O)C(=O)O)C(=O)N[C@@H](Cc1ccc(O)cc1)C(=O)N[C@@H](CC(C)C)C(=O)N[C@@H](CCC(=O)O)C(=O)N[C@@H](CCC(=O)O)C(=O)NCC(=O)NCC(=O)N1CCC[C@H]1C(=O)N[C@@H](CO)C(=O)N[C@@H](CO)C(=O)NCC(=O)N[C@@H](C)C(=O)N1CCC[C@H]1C(=O)N1CCC[C@H]1C(=O)N1CCC[C@H]1C(=O)N[C@@H](CO)C(N)=O)[C@@H](C)CC` [Example 455] (H-Y[Aib]QGT[αMePhe(2-F)]TSDYSI[αMeL]LDKIAQ[Aib]AFIK([AEEA-γGlu-C18 diacid])YLEEGGPSSGAPPPS-NH2): the EC50 at hGLP-1R [1] came to 105 nM; on hGLP-1R [2], 0.49 nM; at hGIPR [3] it was 0.0182 nM; on human GcgR it was 1200 nM; on hGcgR it was 4.36 nM; at hGIPR [4], 5.2 nM.

In the case of `CC[C@H](C)[C@H](NC(=O)[C@H](CC(C)C)NC(=O)[C@](C)(Cc1ccc(O)cc1)NC(=O)[C@@H](CCC(=O)O)NC(=O)[C@@H](NC(=O)[C@H](Cc1ccccc1)NC(=O)[C@H](CC(N)=O)NC(=O)C(C)(C)NC(=O)[C@H](CCC(N)=O)NC(=O)[C@H](C)NC(=O)[C@H](CCCCNC(=O)COCCOCCNC(=O)CC[C@H](NC(=O)CCCCCCCCCCCCCCCCC(=O)O)C(=O)O)NC(=O)[C@H](CCCN)NC(=O)[C@H](CC(=O)O)NC(=O)[C@H](CC(C)C)NC(=O)[C@](C)(CC(C)C)NC(=O)[C@@H](NC(=O)[C@](C)(CO)NC(=O)[C@H](Cc1ccncc1)NC(=O)[C@H](CC(=O)O)NC(=O)[C@H](CO)NC(=O)[C@@H](NC(=O)[C@](C)(Cc1ccccc1F)NC(=O)[C@@H](NC(=O)CNC(=O)[C@H](CCC(N)=O)NC(=O)C(C)(C)NC(=O)[C@@H](N)Cc1ccc(O)cc1)[C@@H](C)O)[C@@H](C)O)[C@@H](C)CC)[C@@H](C)CC)C(=O)N[C@@H](CCC(=O)O)C(=O)NCC(=O)NCC(=O)N1CCC[C@H]1C(=O)N[C@@H](CO)C(=O)N[C@@H](CO)C(=O)NCC(=O)N[C@@H](CCC(=O)O)C(=O)N1CCC[C@H]1C(=O)N1CCC[C@H]1C(=O)N1CCC[C@H]1C(=O)N[C@@H](CCC(=O)O)C(N)=O` [Example 456] (H-Y[Aib]QGT[αMePhe(2-F)]TSD[4Pal][αMeS]I[αMeL]LD[Orn]K([AEEA-γGlu-C18 diacid])AQ[Aib]NFI[dE][αMeY]LIEGGPSSGEPPPE-NH2), the EC50 at hGLP-1R [1] came to 12.5 nM; at hGLP-1R [2], 0.19 nM; at hGIPR [3] it was 0.00913 nM; on human GcgR, 230 nM; at hGcgR, 3.48 nM; on hGIPR [4], 0.993 nM.
